Results on 16 compounds are retold here after US20250206758A1, “SUBSTITUTED BRIDGED RING INHIBITOR, PREPARATION METHOD THEREFOR AND APPLICATION THEREOF” (SUZHOU ZELGEN BIOPHARMACEUTICALS CO., LTD., priority 2022, published 2025).

Read-outs that look alike come from different tables or passages of the source. A value given as a limit tells only on which side of the number the result lay.

One assay concerns AsPC-1. Nature of the assay: Cell proliferation inhibition, AsPC-1 (CellTiter-Glo 3D, 7 days). The class given is cell-based. The note with it: AsPC-1, 7 days. As for the experimental part: (§1) • (a) Resuscitating cells in T75 cell culture flask: • (b) When the cell confluence reaches 80-90%, subculturing the cells.
(§2) The diluted test compound was added to a 384-well cell culture plate with a nanoliter pipetting system, and duplicate wells were set up. An equal volume of culture medium was added to the positive control group; and an equal volume of DMSO was added to the negative control group, then centrifugation was conducted at 1000 rpm for 1 min at room temperature.
(§3) Cells were inoculated into a) 384-well culture plate, with an equal volume of cells added to the negative control group, and only an equal volume of culture medium added to the positive control group. The plate was centrifuged at 1000 rpm for 1 min at room temperature, and the final DMSO concentration of the compound was 0.5% at last. The plate was placed in a 37° C., 5% CO2 constant temperature incubator for 7 days.
(§4) 20 μL/well of CellTiter-Glo® 3D to b) was added to 384-well cell culture plate, and the plate was shook at 320 rpm for 20 min in the dark, and incubated at room temperature in the dark for 2 hrs.
(§5) The luminescence value was read using an Envision multi-functional microplate reader.
(§6) The inhibition rate (IR) of the test compound was calculated using the following formula: IR (%)=(1−(RLU compound−RLU blank control)/(RLU meidum control−RLU blank control))*100%. The inhibition rates of different concentrations of compounds were calculated in Excel, and then the inhibition curves were plotted and the related parameters (including the minimum inhibition rate, maximum inhibition rate and IC50) were calculated using GraphPad Prism software.

For another assay, the system named is GP2D. The assay can be described thus: Cell proliferation inhibition, GP2D (CellTiter-Glo 3D, 7 days). The class given is cell-based. On the procedure:
as §1, §2, §3, §4, §5, §6
On the technique in general: In ATP-based viability assays light output follows the ATP content of the culture.

As to `Fc1c(-c2c(C(F)(F)F)ccc3[nH]ncc23)ncc2c(N3CC4CCC(C3)N4)nc(OC[C@@]34CCCN3C[C@@]3(CC3(F)F)C4)nc12` [Example 33, (1S,7a'S)-7a′-(((4-((1R,5S)-3,8-diazabicyclo[3.2.1]octan-3-yl)-8-fluoro-7-(5-(trifluoromethyl)-1H-indazol-4-yl)pyridino[4,3-d]pyrimidin-2-yl)oxy)methyl)-2,2-bifluorotetrahydro-1′H,3′H-spiro[cyclopropan-1,2′-pyrrolizin]], the IC50 (as a rule, the concentration that gives 50% inhibition) in the assay on AsPC-1 (Homo sapiens, ASPC1, 168 h) was more than 1000 nM; in the assay with GP2D (168 h) it was more than 100 nM.
For `CC(=O)Nc1cc(Cl)c(C(F)(F)F)c(-c2ncc3c(N4C[C@H]5CC[C@@H](C4)N5)nc(OC[C@@]45CCCN4C[C@@]4(CC4(F)F)C5)nc3c2F)c1` [Example 38, N-(3-(4-((1R,5S)-3,8-diazabicyclo[3.2.1]octan-3-yl)-2-(((1S,7a'S)-2,2-difluorodihydro-1′H,3′H-spiro[cyclopropan-1,2′-pyrrolizin]-7a′(5′H)-yl)methoxy)-8-fluoropyridino[4,3-d]pyrimidin-7-yl)-5-chloro-4-(trifluoromethyl)phenyl)acetamide], the IC50 stood at 142 nM in the assay with AsPC-1 (Homo sapiens, ASPC1, 168 h) and 14.1 nM with GP2D (168 h).
`CS(=O)(=O)Nc1cc(Cl)c(C(F)(F)F)c(-c2ncc3c(N4C[C@H]5CC[C@@H](C4)N5)nc(OC[C@@]45CCCN4C[C@@]4(CC4(F)F)C5)nc3c2F)c1` [Example 39, N-(3-(4-((1R,5S)-3,8-diazabicyclo[3.2.1]octan-3-yl)-2-(((1S,7a'S)-2,2-difluorodihydro-1′H,3′H-spiro[cyclopropan-1,2′-pyrrolizin]-7a′(5′H)-yl)methoxy)-8-fluoropyridino[4,3-d]pyrimidin-7-yl)-5-chloro-4-(trifluoromethyl)phenyl)methanesulfonamide]: the IC50 amounted to 521 nM with AsPC-1 (Homo sapiens, ASPC1, 168 h) and 38.3 nM in the assay with GP2D (168 h).
In the same order, the values of `Oc1cc(Cl)c(C(F)(F)F)c(-c2ncc3c(N4CC5CCC(C4)N5)nc(OC[C@@]45CCCN4C[C@@]4(CC4(F)F)C5)nc3c2F)c1` [Example 40] are 51.6 nM and 14 nM.
As for `N#Cc1cc(N)cc(-c2ncc3c(N4C[C@H]5CC[C@@H](C4)N5)nc(OC[C@@]45CCCN4C[C@@]4(CC4(F)F)C5)nc3c2F)c1C(F)(F)F` [Example 43, 3-(4-((1R,5S)-3,8-diazabicyclo[3.2.1]octan-3-yl)-2-(((1S,7a'S)-2,2-difluorodihydro-1′H,3′H-spiro[cyclopropan-1,2′-pyrrolizin]-7a′(5′H)-yl)methoxy)-8-fluoropyridino[4,3-d]pyrimidin-7-yl)-5-amino-2-(trifluoromethyl)benzonitrile], the IC50 in the assay with AsPC-1 (Homo sapiens, ASPC1, 168 h) stood at 115 nM; with GP2D (168 h) it was 4.17 nM.
On to `Nc1cc(F)c(C(F)(F)F)c(-c2ncc3c(N4C[C@H]5CC[C@@H](C4)N5)nc(OC[C@@]45CCCN4C[C@@]4(CC4(F)F)C5)nc3c2F)c1` [Example 44, 3-(4-((1R,5S)-3,8-diazabicyclo[3.2.1]octan-3-yl)-2-(((1S,7a'S)-2,2-difluorodihydro-1′H,3′H-spiro[cyclopropan-1,2′-pyrrolizin]-7a′(5′H)-yl)methoxy)-8-fluoropyridino[4,3-d]pyrimidin-7-yl)-5-fluoro-4-(trifluoromethyl)aniline], for which the 50% inhibitory concentration (IC50) was 23.3 nM in the assay on AsPC-1 (Homo sapiens, ASPC1, 168 h) and 1.6 nM with GP2D (168 h).
On to `Nc1cc(-c2ncc3c(N4C[C@H]5CC[C@@H](C4)N5)nc(OC[C@@]45CCCN4C[C@@]4(CC4(F)F)C5)nc3c2F)c(Cl)c(C(F)(F)F)c1` [Example 45, 3-(4-((1R,5S)-3,8-diazabicyclo[3.2.1]octan-3-yl)-2-(((1S,7a'S)-2,2-difluorodihydro-1′H,3′H-spiro[cyclopropan-1,2′-pyrrolizin]-7a′(5′H)-yl)methoxy)-8-fluoropyridino[4,3-d]pyrimidin-7-yl)-4-chloro-5-(trifluoromethyl)aniline], for which the IC50 was 896 nM in the assay with AsPC-1 (Homo sapiens, ASPC1, 168 h) and 60 nM with GP2D (168 h).
As for `Nc1cc(Cl)c(F)c(-c2ncc3c(N4C[C@H]5CC[C@@H](C4)N5)nc(OC[C@@]45CCCN4C[C@@]4(CC4(F)F)C5)nc3c2F)c1` [Example 46, 3-(4-((1R,5S)-3,8-diazabicyclo[3.2.1]octan-3-yl)-2-(((1S,7a'S)-2,2-difluorodihydro-1′H,3′H-spiro[cyclopropan-1,2′-pyrrolizin]-7a′(5′H)-yl)methoxy)-8-fluoropyridino[4,3-d]pyrimidin-7-yl)-5-chloro-4-fluoroaniline], the IC50 with AsPC-1 (Homo sapiens, ASPC1, 168 h) was more than 1000 nM; in the assay with GP2D (168 h), more than 100 nM.
Regarding `Nc1cc(Cl)c(Cl)c(-c2ncc3c(N4C[C@H]5CC[C@@H](C4)N5)nc(OC[C@@]45CCCN4C[C@@]4(CC4(F)F)C5)nc3c2F)c1` [Example 47, 3-(4-((1R,5S)-3,8-diazabicyclo[3.2.1]octan-3-yl)-2-(((1S,7a'S)-2,2-difluorodihydro-1′H,3′H-spiro[cyclopropan-1,2′-pyrrolizin]-7a′(5′H)-yl)methoxy)-8-fluoropyridino[4,3-d]pyrimidin-7-yl)-4,5-dichloroaniline], the IC50 with AsPC-1 (Homo sapiens, ASPC1, 168 h) came to 62.3 nM; with GP2D (168 h), 4.54 nM.
Take `N#Cc1cc(N)cc(-c2ncc3c(N4C[C@H]5CC[C@@H](C4)N5)nc(OC[C@@]45CCCN4C[C@@]4(CC4(F)F)C5)nc3c2F)c1Cl` [Example 48, 3-(4-((1R,5S)-3,8-diazabicyclo[3.2.1]octan-3-yl)-2-(((1S,7a'S)-2,2-difluorodihydro-1′H,3′H-spiro[cyclopropan-1,2′-pyrrolizin]-7a′(5′H)-yl)methoxy)-8-fluoropyridino[4,3-d]pyrimidin-7-yl)-5-amino-2-chlorobenzonitrile]: the IC50 in the assay on AsPC-1 (Homo sapiens, ASPC1, 168 h) is 779 nM; in the assay with GP2D (168 h), 66 nM.
For `N#Cc1c(Cl)cc(N)cc1-c1ncc2c(N3C[C@H]4CC[C@@H](C3)N4)nc(OC[C@@]34CCCN3C[C@@]3(CC3(F)F)C4)nc2c1F` [Example 49, 2-(4-((1R,5S)-3,8-diazabicyclo[3.2.1]octan-3-yl)-2-(((1S,7a'S)-2,2-difluorodihydro-1′H,3′H-spiro[cyclopropan-1,2′-pyrrolizin]-7a′(5′H)-yl)methoxy)-8-fluoropyridino[4,3-d]pyrimidin-7-yl)-4-amino-6-chlorobenzonitrile], the IC50 in the assay on AsPC-1 (Homo sapiens, ASPC1, 168 h) was more than 1000 nM; in the assay on GP2D (168 h), 24.4 nM.
For the compound `N#Cc1c(-c2ncc3c(N4C[C@H]5CC[C@@H](C4)N5)nc(OC[C@@]45CCCN4C[C@@]4(CC4(F)F)C5)nc3c2F)cc(N)cc1C(F)(F)F` [Example 50, 2-(4-((1R,5S)-3,8-diazabicyclo[3.2.1]octan-3-yl)-2-(((1S,7a'S)-2,2-difluorodihydro-1′H,3′H-spiro[cyclopropan-1,2′-pyrrolizin]-7a′(5′H)-yl)methoxy)-8-fluoropyridino[4,3-d]pyrimidin-7-yl)-4-amino-6-(trifluoromethyl)benzonitrile], the IC50 with AsPC-1 (Homo sapiens, ASPC1, 168 h) was more than 1000 nM; with GP2D (168 h), more than 100 nM.
With `Nc1cnc(C(F)(F)F)c(-c2ncc3c(N4C[C@H]5CC[C@@H](C4)N5)nc(OC[C@@]45CCCN4C[C@@]4(CC4(F)F)C5)nc3c2F)c1` [Example 52, 5-(4-((1R,5S)-3,8-diazabicyclo[3.2.1]octan-3-yl)-2-(((1S,7a'S)-2,2-difluorodihydro-1′H,3′H-spiro[cyclopropan-1,2′-pyrrolizin]-7a′(5′H)-yl)methoxy)-8-fluoropyridino[4,3-d]pyrimidin-7-yl)-6-(trifluoromethyl)pyridin-3-amine], the IC50 in the assay with AsPC-1 (Homo sapiens, ASPC1, 168 h) was more than 1000 nM; with GP2D (168 h) it was more than 100 nM.
As for `Nc1cncc(-c2ncc3c(N4C[C@H]5CC[C@@H](C4)N5)nc(OC[C@@]45CCCN4C[C@@]4(CC4(F)F)C5)nc3c2F)c1C(F)(F)F` [Example 53, 5-(4-((1R,5S)-3,8-diazabicyclo[3.2.1]octan-3-yl)-2-(((1S,7a'S)-2,2-difluorodihydro-1′H,3′H-spiro[cyclopropan-1,2′-pyrrolizin]-7a′(5′H)-yl)methoxy)-8-fluoropyridino[4,3-d]pyrimidin-7-yl)-4-(trifluoromethyl)pyridin-3-amine], the IC50 with AsPC-1 (Homo sapiens, ASPC1, 168 h) was 896 nM; in the assay on GP2D (168 h), 60 nM.
Take `Cc1nc(N)cc(-c2ncc3c(N4C[C@H]5CC[C@@H](C4)N5)nc(OC[C@@]45CCCN4C[C@@]4(CC4(F)F)C5)nc3c2F)c1C(F)(F)F` [Example 55, 4-(4-((1R,5S)-3,8-diazabicyclo[3.2.1]octan-3-yl)-2-(((1S,7a'S)-2,2-difluorodihydro-1′H,3′H-spiro[cyclopropan-1,2′-pyrrolizin]-7a′(5′H)-yl)methoxy)-8-fluoropyridino[4,3-d]pyrimidin-7-yl)-6-methyl-5-(trifluoromethyl)pyridin-2-amine]: the half-inhibitory concentration (IC50) in the assay on AsPC-1 (Homo sapiens, ASPC1, 168 h) amounted to 56.7 nM; in the assay with GP2D (168 h) it was 6.5 nM.
With “(1S,7a'S)-7a′-(((4-(1R,5S)-3,8-diazabicyclo[3.2.1]octan-3-yl)-7-(8-ethynyl-7-fluoronaphthol-1-yl)-8-fluoropyridino[4,3-d]pyrimidin-2-yl)oxy)methyl)-2,2-difluorodihydro-1′H,3′H-spiro[cyclopropan-1,2′-pyrrolizin] [Example 21]”, the IC50 in the assay on AsPC-1 was 19.1 nM; in the assay with GP2D it was 4.92 nM.
